Test results from the NIST ThermoML archive (doi:10.1021/je800224k).

Settings: Liquid

CCn1cc[n+](C)c1.F[B-](F)(F)F [1-ethyl-3-methylimidazolium tetrafluoroborate]
Settings | mass density [kg/m3]
293.15 K, 101.33 kPa, Vibrating tube method | 1284.4
313.15 K, 101.33 kPa, Vibrating tube method | 1269.1
313.2 K, 10000 kPa, Bellows volumetry | 1274
313.2 K, 20000 kPa, Bellows volumetry | 1278
313.2 K, 30000 kPa, Bellows volumetry | 1282
313.2 K, 40000 kPa, Bellows volumetry | 1287
313.2 K, 50000 kPa, Bellows volumetry | 1291
313.2 K, 60000 kPa, Bellows volumetry | 1295
313.2 K, 70000 kPa, Bellows volumetry | 1299
313.2 K, 80000 kPa, Bellows volumetry | 1302
313.2 K, 90000 kPa, Bellows volumetry | 1306
313.2 K, 100000 kPa, Bellows volumetry | 1310
313.2 K, 110000 kPa, Bellows volumetry | 1313
313.2 K, 120000 kPa, Bellows volumetry | 1317
313.2 K, 130000 kPa, Bellows volumetry | 1320
313.2 K, 140000 kPa, Bellows volumetry | 1323
313.2 K, 150000 kPa, Bellows volumetry | 1327
313.2 K, 160000 kPa, Bellows volumetry | 1330
313.2 K, 170000 kPa, Bellows volumetry | 1333
313.2 K, 180000 kPa, Bellows volumetry | 1336
313.2 K, 190000 kPa, Bellows volumetry | 1339
313.2 K, 200000 kPa, Bellows volumetry | 1342
332.6 K, 10000 kPa, Bellows volumetry | 1259
332.6 K, 20000 kPa, Bellows volumetry | 1264
332.6 K, 30000 kPa, Bellows volumetry | 1268
332.6 K, 40000 kPa, Bellows volumetry | 1273
332.6 K, 50000 kPa, Bellows volumetry | 1277
332.6 K, 60000 kPa, Bellows volumetry | 1281
332.6 K, 70000 kPa, Bellows volumetry | 1285
332.6 K, 80000 kPa, Bellows volumetry | 1289
332.6 K, 90000 kPa, Bellows volumetry | 1293
332.6 K, 100000 kPa, Bellows volumetry | 1297
332.6 K, 110000 kPa, Bellows volumetry | 1300
332.6 K, 120000 kPa, Bellows volumetry | 1304
332.6 K, 130000 kPa, Bellows volumetry | 1307
332.6 K, 140000 kPa, Bellows volumetry | 1311
332.6 K, 150000 kPa, Bellows volumetry | 1314
332.6 K, 160000 kPa, Bellows volumetry | 1317
332.6 K, 170000 kPa, Bellows volumetry | 1321
332.6 K, 180000 kPa, Bellows volumetry | 1324
332.6 K, 190000 kPa, Bellows volumetry | 1327
332.6 K, 200000 kPa, Bellows volumetry | 1330
333.15 K, 101.33 kPa, Vibrating tube method | 1254
352.7 K, 10000 kPa, Bellows volumetry | 1244
352.7 K, 20000 kPa, Bellows volumetry | 1249
352.7 K, 30000 kPa, Bellows volumetry | 1254
352.7 K, 40000 kPa, Bellows volumetry | 1259
352.7 K, 50000 kPa, Bellows volumetry | 1263
352.7 K, 60000 kPa, Bellows volumetry | 1267
352.7 K, 70000 kPa, Bellows volumetry | 1272
352.7 K, 80000 kPa, Bellows volumetry | 1276
352.7 K, 90000 kPa, Bellows volumetry | 1280
352.7 K, 100000 kPa, Bellows volumetry | 1284
352.7 K, 110000 kPa, Bellows volumetry | 1287
352.7 K, 120000 kPa, Bellows volumetry | 1291
352.7 K, 130000 kPa, Bellows volumetry | 1295
352.7 K, 140000 kPa, Bellows volumetry | 1298
352.7 K, 150000 kPa, Bellows volumetry | 1302
352.7 K, 160000 kPa, Bellows volumetry | 1305
352.7 K, 170000 kPa, Bellows volumetry | 1309
352.7 K, 180000 kPa, Bellows volumetry | 1312
352.7 K, 190000 kPa, Bellows volumetry | 1315
352.7 K, 200000 kPa, Bellows volumetry | 1318
353.15 K, 101.33 kPa, Vibrating tube method | 1239.3
372.8 K, 10000 kPa, Bellows volumetry | 1230
372.8 K, 20000 kPa, Bellows volumetry | 1235
372.8 K, 30000 kPa, Bellows volumetry | 1240
372.8 K, 40000 kPa, Bellows volumetry | 1245
372.8 K, 50000 kPa, Bellows volumetry | 1250
372.8 K, 60000 kPa, Bellows volumetry | 1254
372.8 K, 70000 kPa, Bellows volumetry | 1258
372.8 K, 80000 kPa, Bellows volumetry | 1263
372.8 K, 90000 kPa, Bellows volumetry | 1267
372.8 K, 100000 kPa, Bellows volumetry | 1271
372.8 K, 110000 kPa, Bellows volumetry | 1275
372.8 K, 120000 kPa, Bellows volumetry | 1279
372.8 K, 130000 kPa, Bellows volumetry | 1282
372.8 K, 140000 kPa, Bellows volumetry | 1286
372.8 K, 150000 kPa, Bellows volumetry | 1290
372.8 K, 160000 kPa, Bellows volumetry | 1293
372.8 K, 170000 kPa, Bellows volumetry | 1297
372.8 K, 180000 kPa, Bellows volumetry | 1300
372.8 K, 190000 kPa, Bellows volumetry | 1303
372.8 K, 200000 kPa, Bellows volumetry | 1307
392.9 K, 10000 kPa, Bellows volumetry | 1216
392.9 K, 20000 kPa, Bellows volumetry | 1221
392.9 K, 30000 kPa, Bellows volumetry | 1227
392.9 K, 40000 kPa, Bellows volumetry | 1232
392.9 K, 50000 kPa, Bellows volumetry | 1237
392.9 K, 60000 kPa, Bellows volumetry | 1241
392.9 K, 70000 kPa, Bellows volumetry | 1246
392.9 K, 80000 kPa, Bellows volumetry | 1250
392.9 K, 90000 kPa, Bellows volumetry | 1254
392.9 K, 100000 kPa, Bellows volumetry | 1259
392.9 K, 110000 kPa, Bellows volumetry | 1263
392.9 K, 120000 kPa, Bellows volumetry | 1267
392.9 K, 130000 kPa, Bellows volumetry | 1270
392.9 K, 140000 kPa, Bellows volumetry | 1274
392.9 K, 150000 kPa, Bellows volumetry | 1278
392.9 K, 160000 kPa, Bellows volumetry | 1282
392.9 K, 170000 kPa, Bellows volumetry | 1285
392.9 K, 180000 kPa, Bellows volumetry | 1289
392.9 K, 190000 kPa, Bellows volumetry | 1292
392.9 K, 200000 kPa, Bellows volumetry | 1295
413 K, 10000 kPa, Bellows volumetry | 1202
413 K, 20000 kPa, Bellows volumetry | 1208
413 K, 30000 kPa, Bellows volumetry | 1213
413 K, 40000 kPa, Bellows volumetry | 1219
413 K, 50000 kPa, Bellows volumetry | 1224
413 K, 60000 kPa, Bellows volumetry | 1229
413 K, 70000 kPa, Bellows volumetry | 1233
413 K, 80000 kPa, Bellows volumetry | 1238
413 K, 90000 kPa, Bellows volumetry | 1242
413 K, 100000 kPa, Bellows volumetry | 1247
413 K, 110000 kPa, Bellows volumetry | 1251
413 K, 120000 kPa, Bellows volumetry | 1255
413 K, 130000 kPa, Bellows volumetry | 1259
413 K, 140000 kPa, Bellows volumetry | 1263
413 K, 150000 kPa, Bellows volumetry | 1267
413 K, 160000 kPa, Bellows volumetry | 1270
413 K, 170000 kPa, Bellows volumetry | 1274
413 K, 180000 kPa, Bellows volumetry | 1278
413 K, 190000 kPa, Bellows volumetry | 1281
413 K, 200000 kPa, Bellows volumetry | 1285
432.9 K, 10000 kPa, Bellows volumetry | 1189
432.9 K, 20000 kPa, Bellows volumetry | 1195
432.9 K, 30000 kPa, Bellows volumetry | 1200
432.9 K, 40000 kPa, Bellows volumetry | 1206
432.9 K, 50000 kPa, Bellows volumetry | 1211
432.9 K, 60000 kPa, Bellows volumetry | 1216
432.9 K, 70000 kPa, Bellows volumetry | 1221
432.9 K, 80000 kPa, Bellows volumetry | 1226
432.9 K, 90000 kPa, Bellows volumetry | 1230
432.9 K, 100000 kPa, Bellows volumetry | 1235
432.9 K, 110000 kPa, Bellows volumetry | 1239
432.9 K, 120000 kPa, Bellows volumetry | 1243
432.9 K, 130000 kPa, Bellows volumetry | 1247
432.9 K, 140000 kPa, Bellows volumetry | 1252
432.9 K, 150000 kPa, Bellows volumetry | 1255
432.9 K, 160000 kPa, Bellows volumetry | 1259
432.9 K, 170000 kPa, Bellows volumetry | 1263
432.9 K, 180000 kPa, Bellows volumetry | 1267
432.9 K, 190000 kPa, Bellows volumetry | 1270
432.9 K, 200000 kPa, Bellows volumetry | 1274
452.6 K, 10000 kPa, Bellows volumetry | 1176
452.6 K, 20000 kPa, Bellows volumetry | 1182
452.6 K, 30000 kPa, Bellows volumetry | 1188
452.6 K, 40000 kPa, Bellows volumetry | 1193
452.6 K, 50000 kPa, Bellows volumetry | 1199
452.6 K, 60000 kPa, Bellows volumetry | 1204
452.6 K, 70000 kPa, Bellows volumetry | 1209
452.6 K, 80000 kPa, Bellows volumetry | 1214
452.6 K, 90000 kPa, Bellows volumetry | 1219
452.6 K, 100000 kPa, Bellows volumetry | 1223
452.6 K, 110000 kPa, Bellows volumetry | 1228
452.6 K, 120000 kPa, Bellows volumetry | 1232
452.6 K, 130000 kPa, Bellows volumetry | 1236
452.6 K, 140000 kPa, Bellows volumetry | 1240
452.6 K, 150000 kPa, Bellows volumetry | 1245
452.6 K, 160000 kPa, Bellows volumetry | 1248
452.6 K, 170000 kPa, Bellows volumetry | 1252
452.6 K, 180000 kPa, Bellows volumetry | 1256
452.6 K, 190000 kPa, Bellows volumetry | 1260
452.6 K, 200000 kPa, Bellows volumetry | 1264
472.4 K, 10000 kPa, Bellows volumetry | 1163
472.4 K, 20000 kPa, Bellows volumetry | 1169
472.4 K, 30000 kPa, Bellows volumetry | 1175
472.4 K, 40000 kPa, Bellows volumetry | 1181
472.4 K, 50000 kPa, Bellows volumetry | 1187
472.4 K, 60000 kPa, Bellows volumetry | 1192
472.4 K, 70000 kPa, Bellows volumetry | 1197
472.4 K, 80000 kPa, Bellows volumetry | 1202
472.4 K, 90000 kPa, Bellows volumetry | 1207
472.4 K, 100000 kPa, Bellows volumetry | 1212
472.4 K, 110000 kPa, Bellows volumetry | 1217
472.4 K, 120000 kPa, Bellows volumetry | 1221
472.4 K, 130000 kPa, Bellows volumetry | 1226
472.4 K, 140000 kPa, Bellows volumetry | 1230
472.4 K, 150000 kPa, Bellows volumetry | 1234
472.4 K, 160000 kPa, Bellows volumetry | 1238
472.4 K, 170000 kPa, Bellows volumetry | 1242
472.4 K, 180000 kPa, Bellows volumetry | 1246
472.4 K, 190000 kPa, Bellows volumetry | 1250
472.4 K, 200000 kPa, Bellows volumetry | 1253
